The text below walks through data of US5147865A, “Phosphonopyrrolidine- and piperidine-containing pseudopeptides of the statin type, a process for their preparation and their use as medicaments against retroviruses” (Bayer Aktiengesellschaft, priority 1990, dated 1992).

Assay [1] has as its system HIV-infected normal human blood lymphocytes (PBLs). The assay can be described thus: HIV test in infected human blood lymphocytes (PBLs), syncytia formation, method of Pauwels et al. It counts as cell-based. The following applies: concentration at which 50% (about 10 syncytia) of the virus-induced syncytia were suppressed, day 3 to 6 after infection. The protocol: The HIV test was carried out with slight modifications by the method of Pauwels et al. (Journal of Virological Methods 20 (1988) 309-321).
Normal human blood lymphocytes (PBLs) were concentrated by means of Ficoll-Hypaque and stimulated with phytohaemagglutinin (90 μg/ml) and interleukin 2 (40 U/ml) in RPMI 1640 and 20% foetal calf serum. For infection with the infectious HIV, PBLs were pelleted and the cell pellet was then suspended in 1 ml of HIV virus adsorption solution and incubated at 37° C. for 1 hour.
The virus adsorption solution was centrifuged and the infected cell pellet was taken up in growth medium such that a concentration of 1×10^5 cells per ml was established. The cells infected in this way were pipetted into the wells of 96-well microtitre plates at a concentration of 1×10^4 cells/well. […]
The test batches were incubated at 37° C. until, in the untreated virus control, the syncytia formation typical for HIV occurred (between day 3 and 6 after infection), which was then evaluated microscopically.
The IC-50 values were determined as the concentration of the treated and infected cells at which 50% (about 10 syncytia) of the virus-induced syncytia were suppressed by treatment with the compound according to the invention.

The target of another assay is T1, HIV protease (Human immunodeficiency virus type 1 group M subtype B, UniProt P04585).
T1 construct: purified HIV protease was incubated with synthetic peptide
Put plainly: HIV-specific protease enzyme test (RP-HPLC analysis of synthetic peptide cleavage). As to conditions: purified HIV protease, synthetic peptide imitating a Gag precursor cleavage site; concentration causing 50% inhibition of protease activity. The class given is biochemical. The procedure: This is confirmed using an HIV-specific protease enzyme test.
The results for the examples listed below were determined by the HIV test system described in the following literature reports [cf. Hansen, J., Billich, S., Schulze, T., Sukrow, S. and Molling, K. (1988), EMBO Journal, Vol. 7, No. 6, pages 1785-1791]: purified HIV protease was incubated with synthetic peptide which imitated a cleavage site in the Gag precursor protein and represented an in vivo cleavage site of the HIV protease. The resulting cleavage products of the synthetic peptide were analysed by means of reverse phase high performance liquid chromatography (RP-HPLC). The IC50 values given relate to the substance concentration which causes a 50% inhibition of protease activity under the abovementioned test conditions.

Each structure is given as a SMILES string.

In assay [1], `CCOP(=O)(OCC)C1CCCN1C(=O)C[C@H](O)[C@H](CC1CCCCC1)NC(=O)[C@H](Cc1ccccc1)NC(=O)Nc1cccc2ccccc12` (single isomer, unassigned) [Example 16, Diethyl 1-{(3S,4S)-5-cyclohexyl-3-hydroxy-4-(1-napthylaminocarbonyl)phenylalaninyl]aminopentanoyl}-(2R or S)-2-(pyrrolidinyl)phosphonate] came in with an IC50 of 4.3 µM. For the compound `CCOP(=O)(OCC)C1CCCN1C(=O)C[C@H](O)[C@H](CC1CCCCC1)NC(=O)[C@@H](NC(=O)[C@H](Cc1cccc2ccccc12)CS(=O)(=O)C(C)(C)C)C(C)C` (stereo partly drawn) [Example 14, Diethyl 1-{(3S,4S)-4-[(2S)-3-(tert-butylsulphonyl)2-(1-naphthylmethyl)propanoyl]-valinylamino-5-cyclohexyl-3-hydroxypentanoyl}-(2RorS)-2-(pyrrolidinyl)phosphonate], it took 0.5 µM to reach half-maximal inhibition against HIV protease (IC50). At HIV protease, `CCOP(=O)(OCC)C1CCCN1C(=O)C[C@@H](O)[C@H](CC1CCCCC1)NC(=O)OC(C)(C)C` (stereo partly drawn) [Example 28, Diethyl 1-{(3R,4S)-4-[(tert-butoxycarbonyl)amino]-5-cyclohexyl-3-hydroxypentanonyl]-(2R,S)-2-(pyrrolidinyl)phosphonate] gave an IC50 of 10 µM.
